# Assay results: PMC3192848 (PLoS Pathogens, 2011)
# Molecular target: T1, EtMIC3-MAR1b (thioredoxin-His fusion, microarray) (Eimeria tenella, UniProt B6VCV4)
# T1 construct: gene mic3
# Assay type: binding
# Settings: lipid-linked probe immobilised at 5 fmol/spot; 40 µg/ml protein precomplexed with anti-His antibodies; ambient temperature
row,Compound,Fluorescence signal intensities / EtMIC3-MAR1b
1,NeuAcα-3Galβ-3GlcNAcβ-3Galβ-4Glcß-C30 [compound 38],"5,423 fluorescence units"
2,NeuAcα-6Galβ-4GlcNAcβ-3Galβ-4Glc-DH [compound 79],"5,570 fluorescence units"
3,GT1b [compound 109],"8,121 fluorescence units"

# Molecular target: T2, EtMIC3-MAR1b (NMR construct) (Eimeria tenella, UniProt B6VCV4)
# T2 construct: gene mic3
# Assay type: binding
# Settings: phosphate buffer pH 5.5; sialic acid contacts L175, Y178 and HLT motif
row,Compound,isotope-filtered NMR NOESY; HADDOCK structure from 9 intermolecular NOEs
1,CC(=O)N[C@H]1[C@H]([C@H](O)[C@H](O)CO)O[C@@](O[C@H]2[C@@H](O)[C@@H](CO)O[C@@H](O[C@H]3[C@H](O)[C@@H](NC(C)=O)C(O)O[C@@H]3CO)[C@@H]2O)(C(=O)O)C[C@@H]1O (stereo partly drawn) [Siaα2–3Galβ1–4GlcNAc],intermolecular NOEs

# Molecular target: T3, TgMIC1-MARR (Toxoplasma gondii, UniProt O00834)
# T3 construct: gene MIC1
# T3 sequence (O00834 17-262): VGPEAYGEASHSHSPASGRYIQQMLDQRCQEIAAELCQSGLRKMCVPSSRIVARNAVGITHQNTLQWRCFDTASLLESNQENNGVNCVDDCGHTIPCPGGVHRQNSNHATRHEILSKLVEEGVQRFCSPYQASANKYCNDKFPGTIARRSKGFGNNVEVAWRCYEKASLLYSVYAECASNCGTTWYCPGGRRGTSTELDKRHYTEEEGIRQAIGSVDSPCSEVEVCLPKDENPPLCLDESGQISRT
# Assay type: binding
# Settings: lipid-linked probe immobilised at 5 fmol/spot; 40 µg/ml protein precomplexed with anti-His antibodies; ambient temperature
row,Compound,Fluorescence signal intensities / TgMIC1-MARR
1,NeuAcα-3Galβ-3GlcNAcβ-3Galβ-4Glcß-C30 [compound 38],"11,580 fluorescence units"
2,NeuGcα-3Galß-4Glcß-Cer [compound 60],"12,526 fluorescence units"
3,NeuGcα-3Galβ-3GlcNAcβ-3Galβ-4Glcß-C30 [compound 39],"11,075 fluorescence units"
4,NeuAcα-3Galß-4Glcß-Cer [compound 59],"4,327 fluorescence units"
5,NeuGcα-6GalNAc-AO [compound 88],"13,982 fluorescence units"
